Active and inactive are the calls of the source. The rule behind the calls is not given here.
Legend:
[1] = system: Plasmodium berghei; assay: Antimalarial activity against […] luciferase-expressing Plasmodium berghei sporozoites infected in BALB/c mouse assessed as suppression of parasitemia at 1 to 15 mg/kg, po treated for 2 hrs followed by parasite infection and measured upto 8 days post-infection by luciferase based real-time imaging analysis; assay type: functional, organism-based; settings: dose 1-15 mg/kg, time 194.0 hrs
[2] = system: Plasmodium falciparum; assay: Antimalarial activity against sulphadoxine-resistant blood stage Plasmodium falciparum 3D7 infected in human O+ erythrocytes incubated for 72 hrs by SYBR Green 1 dye based fluorescence assay; assay type: functional, organism-based; settings: 3D7, Erythrocyte
[3] = Inhibition of recombinant His-tagged Plasmodium falciparum 3D7 PI4K expressed in baculovirus infected Sf9 cells using PI:PS as substrate incubated for 1 hr in presence of ATP by ADP-Glo kinase assay
[4] = biological target: Phosphatidylinositol 4,5-bisphosphate 3-kinase catalytic subunit alpha isoform (Homo sapiens, UniProt P42336); assay: Inhibition of human PI3Kalpha by ADP-Glo kinase assay
Chain of Phosphatidylinositol 4,5-bisphosphate 3-kinase catalytic subunit alpha isoform (P42336 whole entry, canonical isoform): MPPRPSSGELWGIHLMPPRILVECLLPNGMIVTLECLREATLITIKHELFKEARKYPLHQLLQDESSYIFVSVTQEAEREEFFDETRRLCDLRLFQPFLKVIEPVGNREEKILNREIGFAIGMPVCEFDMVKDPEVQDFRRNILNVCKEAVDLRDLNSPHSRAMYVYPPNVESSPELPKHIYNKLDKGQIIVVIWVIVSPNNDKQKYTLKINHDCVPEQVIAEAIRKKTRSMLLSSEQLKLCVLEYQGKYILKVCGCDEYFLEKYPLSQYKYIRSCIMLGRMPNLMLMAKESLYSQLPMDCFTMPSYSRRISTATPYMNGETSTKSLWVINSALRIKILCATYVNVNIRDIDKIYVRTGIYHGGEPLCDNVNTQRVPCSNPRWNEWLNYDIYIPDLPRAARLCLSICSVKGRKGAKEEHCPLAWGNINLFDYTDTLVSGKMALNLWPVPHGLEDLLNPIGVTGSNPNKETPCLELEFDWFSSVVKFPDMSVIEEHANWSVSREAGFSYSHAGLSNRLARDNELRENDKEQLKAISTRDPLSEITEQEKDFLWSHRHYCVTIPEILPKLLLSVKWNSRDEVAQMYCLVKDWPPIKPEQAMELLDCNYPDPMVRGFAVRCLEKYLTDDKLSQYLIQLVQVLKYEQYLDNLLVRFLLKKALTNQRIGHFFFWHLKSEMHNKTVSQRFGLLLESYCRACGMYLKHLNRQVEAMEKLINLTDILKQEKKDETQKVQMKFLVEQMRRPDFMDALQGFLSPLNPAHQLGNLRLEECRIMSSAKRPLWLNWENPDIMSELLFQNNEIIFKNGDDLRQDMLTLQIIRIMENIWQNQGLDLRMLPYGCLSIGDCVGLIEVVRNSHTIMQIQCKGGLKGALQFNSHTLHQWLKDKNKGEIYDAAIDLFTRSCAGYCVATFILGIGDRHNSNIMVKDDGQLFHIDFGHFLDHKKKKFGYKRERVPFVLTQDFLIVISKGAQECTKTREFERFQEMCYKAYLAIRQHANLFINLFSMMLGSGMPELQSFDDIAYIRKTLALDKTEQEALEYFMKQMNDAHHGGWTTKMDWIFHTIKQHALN

[5] = biological target: Phosphatidylinositol 4-kinase alpha (Homo sapiens, UniProt P42356); assay: Inhibition of human PI4K3alpha by ADP-Glo kinase assay
Chain of Phosphatidylinositol 4-kinase alpha (P42356 whole entry): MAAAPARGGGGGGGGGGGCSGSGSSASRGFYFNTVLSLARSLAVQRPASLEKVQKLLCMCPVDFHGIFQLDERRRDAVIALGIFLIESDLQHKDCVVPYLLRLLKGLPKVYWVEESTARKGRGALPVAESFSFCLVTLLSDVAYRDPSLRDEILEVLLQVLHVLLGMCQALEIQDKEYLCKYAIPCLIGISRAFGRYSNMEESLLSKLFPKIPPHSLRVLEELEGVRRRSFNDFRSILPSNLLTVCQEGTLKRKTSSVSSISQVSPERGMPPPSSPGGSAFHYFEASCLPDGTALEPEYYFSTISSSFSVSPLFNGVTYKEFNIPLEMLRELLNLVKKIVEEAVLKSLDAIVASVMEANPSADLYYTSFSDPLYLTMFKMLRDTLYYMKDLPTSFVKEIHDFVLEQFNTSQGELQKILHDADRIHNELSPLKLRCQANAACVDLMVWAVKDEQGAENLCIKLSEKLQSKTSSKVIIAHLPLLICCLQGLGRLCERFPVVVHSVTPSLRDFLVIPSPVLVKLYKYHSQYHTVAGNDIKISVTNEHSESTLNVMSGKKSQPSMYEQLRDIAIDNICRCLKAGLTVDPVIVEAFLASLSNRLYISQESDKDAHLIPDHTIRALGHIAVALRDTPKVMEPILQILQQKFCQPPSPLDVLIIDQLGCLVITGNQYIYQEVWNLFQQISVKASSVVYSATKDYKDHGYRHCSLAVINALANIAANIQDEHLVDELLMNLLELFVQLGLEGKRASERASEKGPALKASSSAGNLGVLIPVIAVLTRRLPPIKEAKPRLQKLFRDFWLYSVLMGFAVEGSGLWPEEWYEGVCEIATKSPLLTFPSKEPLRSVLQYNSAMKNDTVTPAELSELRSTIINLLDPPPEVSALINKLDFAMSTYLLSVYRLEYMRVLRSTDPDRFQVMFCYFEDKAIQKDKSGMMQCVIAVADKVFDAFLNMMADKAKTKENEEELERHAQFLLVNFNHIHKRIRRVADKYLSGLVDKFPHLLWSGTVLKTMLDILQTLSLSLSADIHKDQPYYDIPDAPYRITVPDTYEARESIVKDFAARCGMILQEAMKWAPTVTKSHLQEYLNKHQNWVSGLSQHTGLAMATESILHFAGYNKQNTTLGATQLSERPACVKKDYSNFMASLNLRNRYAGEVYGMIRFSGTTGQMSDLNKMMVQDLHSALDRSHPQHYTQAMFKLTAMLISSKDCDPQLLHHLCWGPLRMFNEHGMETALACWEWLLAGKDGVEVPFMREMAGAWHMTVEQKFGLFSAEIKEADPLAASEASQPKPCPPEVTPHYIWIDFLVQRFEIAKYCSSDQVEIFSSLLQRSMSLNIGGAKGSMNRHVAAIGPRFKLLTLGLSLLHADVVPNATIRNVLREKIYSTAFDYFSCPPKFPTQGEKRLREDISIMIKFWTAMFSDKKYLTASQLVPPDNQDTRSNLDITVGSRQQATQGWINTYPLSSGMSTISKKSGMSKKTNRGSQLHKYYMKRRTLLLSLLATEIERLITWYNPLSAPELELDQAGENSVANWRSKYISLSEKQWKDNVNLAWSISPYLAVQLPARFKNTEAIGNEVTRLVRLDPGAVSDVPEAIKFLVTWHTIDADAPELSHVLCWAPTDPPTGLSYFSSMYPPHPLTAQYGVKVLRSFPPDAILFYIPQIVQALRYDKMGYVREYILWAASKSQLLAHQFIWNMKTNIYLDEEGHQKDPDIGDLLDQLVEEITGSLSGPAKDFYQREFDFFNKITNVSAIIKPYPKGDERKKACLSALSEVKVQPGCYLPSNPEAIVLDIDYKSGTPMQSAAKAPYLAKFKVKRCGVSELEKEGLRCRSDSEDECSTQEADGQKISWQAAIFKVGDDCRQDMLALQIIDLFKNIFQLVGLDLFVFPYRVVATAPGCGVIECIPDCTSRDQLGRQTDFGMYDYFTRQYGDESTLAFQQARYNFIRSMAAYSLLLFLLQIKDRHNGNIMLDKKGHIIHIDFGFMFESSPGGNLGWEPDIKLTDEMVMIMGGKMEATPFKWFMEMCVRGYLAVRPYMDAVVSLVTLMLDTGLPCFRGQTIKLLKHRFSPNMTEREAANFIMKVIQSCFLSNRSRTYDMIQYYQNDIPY

[6] = biological target: Phosphatidylinositol 4-kinase beta (Homo sapiens, UniProt Q9UBF8); assay: Inhibition of human PI4K3beta by ADP-Glo kinase assay
Chain of Phosphatidylinositol 4-kinase beta (Q9UBF8 whole entry): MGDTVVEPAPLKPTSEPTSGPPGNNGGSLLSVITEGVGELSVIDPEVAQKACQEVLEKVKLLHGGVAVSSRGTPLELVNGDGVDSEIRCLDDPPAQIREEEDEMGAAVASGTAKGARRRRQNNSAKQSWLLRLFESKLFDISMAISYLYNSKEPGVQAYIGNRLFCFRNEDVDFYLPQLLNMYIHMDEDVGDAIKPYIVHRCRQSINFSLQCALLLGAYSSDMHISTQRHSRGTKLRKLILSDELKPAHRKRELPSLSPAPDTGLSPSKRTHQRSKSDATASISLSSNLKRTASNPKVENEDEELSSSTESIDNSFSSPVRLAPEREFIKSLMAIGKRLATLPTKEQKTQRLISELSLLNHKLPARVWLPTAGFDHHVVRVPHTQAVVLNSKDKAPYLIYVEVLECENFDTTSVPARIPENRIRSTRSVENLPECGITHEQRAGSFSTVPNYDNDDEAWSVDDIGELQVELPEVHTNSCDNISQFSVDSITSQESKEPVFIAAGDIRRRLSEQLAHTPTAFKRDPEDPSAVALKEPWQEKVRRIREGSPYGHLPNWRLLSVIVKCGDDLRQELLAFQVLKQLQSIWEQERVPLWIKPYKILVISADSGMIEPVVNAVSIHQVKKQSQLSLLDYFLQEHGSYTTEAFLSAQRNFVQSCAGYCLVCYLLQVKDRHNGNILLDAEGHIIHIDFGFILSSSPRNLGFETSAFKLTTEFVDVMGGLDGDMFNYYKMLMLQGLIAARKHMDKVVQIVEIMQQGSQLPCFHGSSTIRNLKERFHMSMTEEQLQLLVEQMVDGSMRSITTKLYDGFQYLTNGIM

[7] = Selectivity index, ratio of IC50 for human PI3Kdelta to IC50 for recombinant His-tagged Plasmodium falciparum 3D7 PI4K expressed in baculovirus infected Sf9 cells
[8] = Selectivity index, ratio of IC50 for human VPS34 to IC50 for recombinant His-tagged Plasmodium falciparum 3D7 PI4K expressed in baculovirus infected Sf9 cells
[9] = system: Plasmodium falciparum; assay: Antimalarial activity against artemisinin resistant Plasmodium falciparum 803 infected in human O+ erythrocytes incubated for 72 hrs by SYBR Green 1 dye based fluorescence assay; assay type: functional, organism-based; settings: Plasmodium falciparum, 803, Erythrocyte
[10] = system: Plasmodium falciparum; assay: Antimalarial activity against artemisinin and piperaquine-phosphate resistant Plasmodium falciparum 6320 infected in human O+ erythrocytes incubated for 72 hrs by SYBR Green 1 dye based fluorescence assay; assay type: functional, organism-based; settings: Plasmodium falciparum, 6320, Erythrocyte
[11] = system: Plasmodium falciparum; assay: Antimalarial activity against Plasmodium falciparum GB4 infected in human O+ erythrocytes incubated for 72 hrs by SYBR Green 1 dye based fluorescence assay; assay type: functional, organism-based; settings: GB4, Erythrocyte
[12] = system: Plasmodium falciparum; assay: Antimalarial activity against pyrimethamine/chloroquine resistant Plasmodium falciparum PC26 infected in human O+ erythrocytes incubated for 72 hrs by SYBR Green 1 dye based fluorescence assay; assay type: functional, organism-based; settings: PC26, Erythrocyte
[13] = system: Plasmodium falciparum; assay: Antimalarial activity against pyrimethamine/chloroquine resistant Plasmodium falciparum CP286 infected in human O+ erythrocytes incubated for 72 hrs by SYBR Green 1 dye based fluorescence assay; assay type: functional, organism-based; settings: CP286, Erythrocyte
[14] = AUC(0 to t) in mouse at 1 mg/kg, iv; assay type: ADME, organism-based; set-up: dose 1 mg/kg; settings: in vivo
[15] = AUC(0 to t) in mouse at 10 mg/kg, po; assay type: ADME, organism-based; set-up: dose 10 mg/kg; settings: in vivo
[16] = AUC(0 to infinity) in Sprague-Dawley rat at 1 mg/kg, iv; assay type: ADME, organism-based; set-up: time infinity, route intravenous, dose 1 mg/kg; settings: in vivo
[17] = AUC(0 to infinity) in Sprague-Dawley rat at 10 mg/kg, po; assay type: ADME, organism-based; set-up: time infinity, route oral, dose 10 mg/kg; settings: in vivo
[18] = AUC(0 to infinity) in mouse at 1 mg/kg, iv; assay type: ADME, organism-based; set-up: time infinity, route intravenous, dose 1 mg/kg; settings: in vivo
[19] = AUC(0 to infinity) in mouse at 10 mg/kg, po; assay type: ADME, organism-based; set-up: route oral, time infinity, dose 10 mg/kg; settings: in vivo
[20] = Mean residence time (0 to t) in Sprague-Dawley rat at 1 mg/kg, iv; assay type: ADME, organism-based; settings: in vivo
[21] = Mean residence time (0 to t) in Sprague-Dawley rat at 10 mg/kg, po; assay type: ADME, organism-based; settings: in vivo
[22] = Apparent volume of distribution in Sprague-Dawley rat at 1 mg/kg, iv; assay type: ADME, organism-based; settings: in vivo, read-out: Vz
[23] = Apparent volume of distribution in mouse at 1 mg/kg, iv; assay type: ADME, organism-based; settings: in vivo, read-out: Vz
[24] = Apparent clearance in Sprague-Dawley rat at 1 mg/kg, iv; assay type: ADME, organism-based; settings: in vivo, read-out: CL(app) (converted)
[25] = Apparent clearance in Sprague-Dawley rat at 10 mg/kg, po; assay type: ADME, organism-based; settings: in vivo, read-out: CL(app) (converted)
[26] = Tmax in mouse at 1 mg/kg, iv; assay type: ADME, organism-based; settings: in vivo
[27] = Tmax in mouse at 10 mg/kg, po; assay type: ADME, organism-based; settings: in vivo
[28] = Half life in Sprague-Dawley rat at 1 mg/kg, iv; assay type: ADME, organism-based; settings: in vivo
[29] = Half life in mouse at 1 mg/kg, iv; assay type: ADME, organism-based; settings: in vivo
[30] = Half life in mouse at 10 mg/kg, po; assay type: ADME, organism-based; settings: in vivo
[31] = Oral bioavailability in mouse at 10 mg/kg; assay type: ADME, organism-based; settings: in vivo
[32] = system: Plasmodium yoelii; assay: Antimalarial activity against blood stage Plasmodium yoelii infected in BALB/c mouse assessed as suppression of parasitemia at 60 mg/kg/day, po administered for 7 consecutive days starting from 1 day post-infection and observed for 20 days by Giemsa-staining based microscopic analysis; assay type: functional, organism-based; settings: time 20.0 day
[33] = Selectivity index, ratio of EC50 for antimalarial activity against wild type Plasmodium falciparum infected in human O+ erythrocytes to EC50 for antimalarial activity against Plasmodium falciparum harboring PI4K Y1342I mutant infected in human O+ erythrocytes; assay type: functional, Erythrocyte
[34] = Inhibition of human PIK3C2alpha by ADP-Glo kinase assay

## CNC(=O)c1cncc(-c2cnc(Cl)c(NS(=O)(=O)c3ccccc3)c2)c1
[1]
  Activity: Active
[2]
  EC50: 25.1 nM
[3]
  IC50: 0.9 nM
[4]
  IC50: 191 nM
[5]
  IC50: 165 nM
[6]
  IC50: 433 nM
[7]
  Ratio IC50: 100
[8]
  Ratio IC50: 400
[9]
  EC50: 30.9 nM
[10]
  EC50: 24.7 nM
[11]
  EC50: 47.8 nM
[12]
  EC50: 44 nM
[13]
  EC50: 24.1 nM
[14]
  AUC(0-t): 327 ng·h/mL
[15]
  AUC(0-t): 2630 ng·h/mL
[16]
  AUC(0-inf): 2170 ng·h/mL
[17]
  AUC(0-inf): 19300 ng·h/mL
[18]
  AUC(0-inf): 292 ng·h/mL
[19]
  AUC(0-inf): 2380 ng·h/mL
[20]
  MRT last: 1 h
[21]
  MRT last: 4.3 h
[22]
  Vd: 2.6 L/kg
[23]
  Vd: 12.1 L/kg
[24]
  clearance: 8.33 mL/min/kg
[25]
  CL/F: 8.33 mL/min/kg
[26]
  Tmax: 1.8 min
[27]
  Tmax: 0.19 h
[28]
  half-life: 3.5 h
[29]
  half-life: 2.7 h
[30]
  half-life: 3.6 h
[31]
  bioavailability: 80%
[32]
  Activity: Active
[33]
  Ratio EC50: 2
[34]
  IC50: > 10000 nM

— ChEMBL document CHEMBL4680147, “Discovery of 6'-chloro-N-methyl-5'-(phenylsulfonamido)-[3,3'-bipyridine]-5-carboxamide (CHMFL-PI4K-127) as a novel Plasmodium falciparum PI(4)K inhibitor with potent antimalarial activity against both blood and liver stages of Plasmodium” (Eur J Med Chem, 2020)
